Where a name gives a salt, the structure may show the parent alone.
Assays:
Conditions in all cases: exposure time 48 h
[1] = system: Caenorhabditis elegans N2; experiment: AC50 for larval growth inhibition (Hill fit); higher = less potent
Outline: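 Synchronised C. elegans N2 L1 larvae, 50 per well in 96-well plates, were grown at 20°C for 48 h in K-medium with killed OP50, 1% DMSO and 0.5–200 µM chemical. Worm size was read on a COPAS Biosort as extinction, log-transformed and averaged per well, and only wells holding at least 10 worms were kept. AC50 was obtained by a constrained Hill fit using weighted genetic-algorithm regression, with out-of-range values censored.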

[2] = system: Caenorhabditis elegans N2; experiment: lowest effective concentration for larval growth inhibition (size below effect threshold); higher = less potent
Outline: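 L1 larvae of C. elegans N2 (50 per 96-well) were grown in K-medium with killed bacteria and 1% DMSO, with the chemical at 0.5, 1, 5, 10, 50, 100 or 200 µM, for 48 h at 20°C. Per-worm extinction from the Biosort stood for size and was log-transformed into well means. For each chemical, the lowest effective concentration is the first dose where plate-adjusted mean size falls under the threshold and stays under it at the higher doses, using a threshold of 5.665.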

[3] = system: Caenorhabditis elegans N2; experiment: mean nematode size ln(EXT) after 48 h, plate-adjusted (DMSO control set to 6) (ln(EXT), control-adjusted); higher = larger nematodes / less growth inhibition
Outline: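 A growth model removed debris from Biosort extinction readings taken on each worm. These worms were synchronised C. elegans N2 L1 larvae, 50 per well in 4–6 wells per treatment, grown for 48 h at 20°C in K-medium with killed OP50, 1% DMSO and 0.5–200 µM chemical. Readings were natural-logged and averaged by well to give mean size. On each plate, the vehicle control mean was subtracted and 6 was added.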

Row | SMILES | AC50 for larval growth inhibition [1] [µM] | lowest effective concentration [2] [µM] | mean nematode size ln(EXT) (ln) ([3]; 0.5 µM) | mean nematode size ln(EXT) (ln) ([3]; 1 µM) | mean nematode size ln(EXT) (ln) ([3]; 5 µM) | mean nematode size ln(EXT) (ln) ([3]; 10 µM) | mean nematode size ln(EXT) (ln) ([3]; 50 µM) | mean nematode size ln(EXT) (ln) ([3]; 100 µM) | mean nematode size ln(EXT) (ln) ([3]; 200 µM)
1 | CN(C)CCCN1c2ccccc2Sc2ccc(Cl)cc21 [Chlorpromazine hydrochloride] | 46.3 | 50 | 5.89 | 5.87 | 5.82 | 5.71 | 4.47 | 3.85 | 3.07
2 | CC(C)OC(=O)Nc1cccc(Cl)c1 [Chlorpropham] | 60.7 | 100 | 5.75 | 5.77 | 5.9 | 5.95 | 5.82 | 4.79 | 4.32
3 | CCOP(=O)(OCC)Oc1nc(Cl)c(Cl)cc1Cl [Chlorpyrifos oxon] | 1.24 | ≤ 0.5 | 4.98 | 4.42 | 4.26 | 4.05 | 3.47 | 3.24 | 3.15
4 | COP(=S)(OC)Oc1nc(Cl)c(Cl)cc1Cl [Chlorpyrifos-methyl] | 96.8 | 100 | 6.24 | 6.29 | 6.3 | 6.17 | 5.93 | 4.68 | 3.59
5 | CCOP(=S)(OCC)Oc1nc(Cl)c(Cl)cc1Cl [Chlorpyrifos] | 2.28 | ≤ 0.5 | 5.55 | 5.06 | 4.29 | 3.42 | 3.29 | 3.43 | 3.06
6 | COC(=O)c1c(Cl)c(Cl)c(C(=O)OC)c(Cl)c1Cl [Chlorthal-dimethyl] | > 200 | 100 | 5.89 | 5.95 | 5.78 | 5.83 | 5.75 | 5.56 | 5.42
7 | Cc1ccccc1CO[C@@H]1C[C@@]2(C(C)C)CCC1(C)O2 [Cinmethylin] | > 200 | 200 | 5.94 | 5.99 | 6 | 6.07 | 5.92 | 5.77 | 4.9
8 | CC(C)=CCCC(C)CCO (stereo not given) [Citronellol] | > 200 | 200 | 5.82 | 5.87 | 5.92 | 5.78 | 5.86 | 5.73 | 5.6
9 | C#CCOC(=O)[C@@H](C)Oc1ccc(Oc2ncc(Cl)cc2F)cc1 [Clodinafop-propargyl] | 106 | 200 | 5.98 | 5.9 | 6.05 | 5.94 | 6.15 | 5.84 | 5.14
10 | CCOC(=O)C(C)(C)Oc1ccc(Cl)cc1 [Clofibrate] | > 200 | 200 | 6.01 | 5.8 | 5.86 | 5.81 | 5.75 | 5.78 | 5.54
11 | Oc1ccc(Cl)cc1Cc1ccccc1 [Clorophene] | 92 | 50 | 5.89 | 5.87 | 5.83 | 5.73 | 5.15 | 4.62 | 3.79
12 | Clc1ccccc1C(c1ccccc1)(c1ccccc1)n1ccnc1 [Clotrimazole] | 18.8 | 5 | 5.8 | 5.74 | 5.4 | 4.95 | 3.89 | 3.9 | 3.23
13 | CCOP(=S)(OCC)Oc1ccc2c(C)c(Cl)c(=O)oc2c1 [Coumaphos] | 3.33 | ≤ 0.5 | 5.36 | 5.23 | 4.39 | 4.44 | 3.95 | 3.82 | 3.58
14 | CC(C)(OO)c1ccccc1 [Cumene hydroperoxide] | > 200 | 200 | 5.92 | 5.91 | 5.94 | 5.75 | 5.88 | 5.75 | 5.62
15 | Cc1ccc(-c2c(Cl)nc(C#N)n2S(=O)(=O)N(C)C)cc1 [Cyazofamid] | 60.5 | 100 | 5.91 | 5.91 | 5.88 | 6.02 | 5.84 | 5.29 | 4.91
16 | CCSC(=O)N(CC)C1CCCCC1 [Cycloate] | 105 | 200 | 6.06 | 6.1 | 5.93 | 6.05 | 6.03 | 5.76 | 5.06
17 | CC1=C2C[C@H]3[C@@H](CC=C4C[C@@H](O)CC[C@@]43C)[C@@H]2CC[C@]12O[C@@H]1C[C@H](C)CN[C@H]1[C@H]2C [Cyclopamine] | > 200 | 200 | 5.89 | 5.89 | 5.9 | 5.85 | 5.9 | 5.8 | 5.39
18 | CCCCOC(=O)[C@H](C)Oc1ccc(Oc2ccc(C#N)cc2F)cc1 [Cyhalofop-butyl] | 107 | 200 | 6 | 6 | 6.12 | 6.17 | 6.08 | 5.91 | 5.22
19 | CCNC(=O)NC(=O)/C(C#N)=N/OC [Cymoxanil] | > 200 | 100 | 6.18 | 6.05 | 6.07 | 6.11 | 5.79 | 5.58 | 4.81
20 | CC1(C)C(C=C(Cl)Cl)C1C(=O)OC(C#N)c1cccc(Oc2ccccc2)c1 (stereo not given) [Cypermethrin] | > 200 | 200 | 6.09 | 6.11 | 6.12 | 6.03 | 5.88 | 5.71 | 5.17

Source: the supplement of paper PMC4858399
